Test results: paper PMC5218480 (PLoS ONE, 2017)

Test system: MV-4-11 cells
Assay: Gene expression microarray analysis (Affymetrix PrimeView) and GSEA
Type: cell-based, human
Parameters: RFU PODN (11730768_x_at) / Fold change /veh PODN (11730768_x_at) / RFU LINC00158 (11744669_a_at) / Fold change /veh LINC00158 (11744669_a_at) / RFU DUSP10 (11751237_a_at) / Fold change /veh DUSP10 (11751237_a_at) / RFU ID3 (11757404_x_at) / Fold change /veh ID3 (11757404_x_at) / RFU PLEKHG5 (11737974_s_at) / Fold change /veh PLEKHG5 (11737974_s_at) / RFU LRRC4B (11730491_at) / Fold change /veh LRRC4B (11730491_at) / RFU GIMAP4 (11747438_a_at) / Fold change /veh GIMAP4 (11747438_a_at) / RFU KRT8 (11758183_x_at) / Fold change /veh KRT8 (11758183_x_at) / RFU CNN1 (11734310_a_at) / Fold change /veh CNN1 (11734310_a_at) / RFU VPS37D (11726825_at) / Fold change /veh VPS37D (11726825_at) / RFU C10orf10 (11716522_x_at) / Fold change /veh C10orf10 (11716522_x_at) / RFU KIR2DL2 /// KIR2DL4 /// KIR2DL5A /// KIR2DL5B /// KIR2DS1 /// KIR2DS2 /// KIR2DS3 /// KIR2DS4 /// KIR3DL3 /// KIR3DL3 /// KIR3DS1 (11738374_at) / Fold change /veh KIR2DL2 /// KIR2DL4 /// KIR2DL5A /// KIR2DL5B /// KIR2DS1 /// KIR2DS2 /// KIR2DS3 /// KIR2DS4 /// KIR3DL3 /// KIR3DL3 /// KIR3DS1 (11738374_at) / RFU C1QL1 (11718748_at) / Fold change /veh C1QL1 (11718748_at) / RFU TMPRSS4 (11747572_a_at) / Fold change /veh TMPRSS4 (11747572_a_at) / RFU HAMP (11756126_x_at) / Fold change /veh HAMP (11756126_x_at) / RFU RNFT2 (11725882_a_at) / Fold change /veh RNFT2 (11725882_a_at) / RFU NR4A2 (11747474_a_at) / Fold change /veh NR4A2 (11747474_a_at) / RFU ABCC12 (11746883_a_at) / Fold change /veh ABCC12 (11746883_a_at) / RFU TMEM136 (11760407_x_at) / Fold change /veh TMEM136 (11760407_x_at) / RFU CLDN22 /// WWC2 (11732394_at) / Fold change /veh CLDN22 /// WWC2 (11732394_at) / RFU HLA-DPB1 (11760878_x_at) / Fold change /veh HLA-DPB1 (11760878_x_at) / RFU SPINT1 (11716480_a_at) / Fold change /veh SPINT1 (11716480_a_at) / RFU GAP43 (11754022_s_at) / Fold change /veh GAP43 (11754022_s_at) / RFU A4GNT (11735810_at) / Fold change /veh A4GNT (11735810_at) / RFU PRB3 (11715151_x_at) / Fold change /veh PRB3 (11715151_x_at) / RFU TUBB4B (11761932_at) / Fold change /veh TUBB4B (11761932_at) / RFU CAPN14 (11732068_a_at) / Fold change /veh CAPN14 (11732068_a_at) / RFU TMCC2 (11721928_a_at) / Fold change /veh TMCC2 (11721928_a_at) / RFU IRGQ (11745062_a_at) / Fold change /veh IRGQ (11745062_a_at) / RFU FAM174B (11720279_a_at) / Fold change /veh FAM174B (11720279_a_at) / RFU TMPRSS4 (11748680_a_at) / Fold change /veh TMPRSS4 (11748680_a_at) / RFU FAM212B (11763350_a_at) / Fold change /veh FAM212B (11763350_a_at) / RFU PLEKHG5 (11743358_a_at) / Fold change /veh PLEKHG5 (11743358_a_at) / RFU ZSCAN30 (11745921_a_at) / Fold change /veh ZSCAN30 (11745921_a_at) / RFU CMKLR1 (11741424_a_at) / Fold change /veh CMKLR1 (11741424_a_at) / RFU LOC101060620 /// MAPK8IP1 (11723275_at) / Fold change /veh LOC101060620 /// MAPK8IP1 (11723275_at) / RFU SPTSSB (11747773_x_at) / Fold change /veh SPTSSB (11747773_x_at) / RFU PRSS12 (11739890_at) / Fold change /veh PRSS12 (11739890_at) / RFU BIN1 (11741810_x_at) / Fold change /veh BIN1 (11741810_x_at) / RFU WNT11 (11732464_a_at) / Fold change /veh WNT11 (11732464_a_at) / RFU C10orf10 (11716521_a_at) / Fold change /veh C10orf10 (11716521_a_at) / RFU C5orf56 (11738089_at) / Fold change /veh C5orf56 (11738089_at) / RFU CYB561 (11721691_x_at) / Fold change /veh CYB561 (11721691_x_at) / RFU ANKRD19P (11752326_a_at) / Fold change /veh ANKRD19P (11752326_a_at) / RFU OR2T12 /// OR2T33 /// OR2T8 (11738714_s_at) / Fold change /veh OR2T12 /// OR2T33 /// OR2T8 (11738714_s_at) / RFU VCAN (11748164_a_at) / Fold change /veh VCAN (11748164_a_at) / RFU JSRP1 (11732532_at) / Fold change /veh JSRP1 (11732532_at) / RFU KRTAP10-11 (11738290_x_at) / Fold change /veh KRTAP10-11 (11738290_x_at) / RFU MYO3A (11730013_a_at) / Fold change /veh MYO3A (11730013_a_at) / RFU EBF3 (11725865_a_at) / Fold change /veh EBF3 (11725865_a_at) / RFU CAMK2N1 (11719241_x_at) / Fold change /veh CAMK2N1 (11719241_x_at) / RFU C5orf56 (11738088_a_at) / Fold change /veh C5orf56 (11738088_a_at) / RFU OLFML3 (11715873_a_at) / Fold change /veh OLFML3 (11715873_a_at) / RFU LOC100653217 /// NTM (11731650_a_at) / Fold change /veh LOC100653217 /// NTM (11731650_a_at) / RFU MAPK11 (11762145_a_at) / Fold change /veh MAPK11 (11762145_a_at) / RFU FIZ1 (11724087_x_at) / Fold change /veh FIZ1 (11724087_x_at) / RFU OASL (11726364_x_at) / Fold change /veh OASL (11726364_x_at) / RFU SOX15 (11748057_x_at) / Fold change /veh SOX15 (11748057_x_at) / RFU CD79A (11719716_a_at) / Fold change /veh CD79A (11719716_a_at) / RFU HIST1H1D (11736915_at) / Fold change /veh HIST1H1D (11736915_at) / RFU CASKIN2 (11723855_a_at) / Fold change /veh CASKIN2 (11723855_a_at) / RFU LOC730098 (11760151_x_at) / Fold change /veh LOC730098 (11760151_x_at) / RFU OR4N2 (11742367_at) / Fold change /veh OR4N2 (11742367_at) / RFU PRRT2 (11749266_a_at) / Fold change /veh PRRT2 (11749266_a_at) / RFU SNX32 (11753110_a_at) / Fold change /veh SNX32 (11753110_a_at) / RFU CDHR5 (11726645_a_at) / Fold change /veh CDHR5 (11726645_a_at) / RFU RCAN1 (11760418_a_at) / Fold change /veh RCAN1 (11760418_a_at) / RFU FAM167A (11723789_a_at) / Fold change /veh FAM167A (11723789_a_at) / RFU FAM26E (11764081_at) / Fold change /veh FAM26E (11764081_at) / RFU ISYNA1 (11749810_s_at) / Fold change /veh ISYNA1 (11749810_s_at) / RFU ACY1 (11761880_at) / Fold change /veh ACY1 (11761880_at) / RFU 11764098_at / Fold change /veh 11764098_at / RFU SAMD14 (11745864_x_at) / Fold change /veh SAMD14 (11745864_x_at) / RFU NPB (11741838_a_at) / Fold change /veh NPB (11741838_a_at) / RFU TMPRSS6 (11731388_a_at) / Fold change /veh TMPRSS6 (11731388_a_at) / RFU KRTAP10-2 (11738614_at) / Fold change /veh KRTAP10-2 (11738614_at) / RFU ARHGAP8 /// PRR5-ARHGAP8 (11727945_x_at) / Fold change /veh ARHGAP8 /// PRR5-ARHGAP8 (11727945_x_at) / RFU KRTAP5-7 /// NADSYN1 (11734609_at) / Fold change /veh KRTAP5-7 /// NADSYN1 (11734609_at) / RFU RASL12 (11751679_a_at) / Fold change /veh RASL12 (11751679_a_at) / RFU CDKN2B (11736163_a_at) / Fold change /veh CDKN2B (11736163_a_at) / RFU PRF1 (11729649_at) / Fold change /veh PRF1 (11729649_at) / RFU, ZNF638 /// ZNF638-IT1 / Fold change vs veh, ZNF638 /// ZNF638-IT1 / RFU, PANK3 / Fold change vs veh, PANK3 / RFU, SH3YL1 / Fold change vs veh, SH3YL1 / RFU, ZEB2 / Fold change vs veh, ZEB2 / RFU, NRIP1 / Fold change vs veh, NRIP1 / RFU, PTTG1IP / Fold change vs veh, PTTG1IP / RFU, CAPN2 / Fold change vs veh, CAPN2 / RFU, MED14 / Fold change vs veh, MED14 / RFU, SNORA58 / Fold change vs veh, SNORA58 / RFU, C1orf63 / Fold change vs veh, C1orf63 / RFU, LRRFIP1 / Fold change vs veh, LRRFIP1 / RFU, NDUFAF7 / Fold change vs veh, NDUFAF7 / RFU, SLC12A2 / Fold change vs veh, SLC12A2 / RFU, IBTK / Fold change vs veh, IBTK / RFU, ESF1 / Fold change vs veh, ESF1 / Fold change vs veh, TMEM50B / RFU, TAOK1 / Fold change vs veh, TAOK1 / RFU, ACBD3 / Fold change vs veh, ACBD3 / RFU, TMA16 / Fold change vs veh, TMA16 / RFU, RWDD3 / Fold change vs veh, RWDD3 / RFU, BCAT1 / Fold change vs veh, BCAT1 / RFU, EDEM3 / Fold change vs veh, EDEM3 / RFU, TMEM33 / Fold change vs veh, TMEM33 / RFU, WDR75 / Fold change vs veh, WDR75 / RFU, AHCTF1 / Fold change vs veh, AHCTF1 / RFU, TFRC / Fold change vs veh, TFRC / RFU, ZDHHC17 / Fold change vs veh, ZDHHC17 / RFU, NOM1 / Fold change vs veh, NOM1 / RFU, ARL8B / Fold change vs veh, ARL8B / RFU, ZBTB11 / Fold change vs veh, ZBTB11 / RFU, TAMM41 / Fold change vs veh, TAMM41 / RFU, KIAA1704 /// LOC100996395 / Fold change vs veh, KIAA1704 /// LOC100996395 / RFU, ING1 / Fold change vs veh, ING1 / RFU, TRMT61B / Fold change vs veh, TRMT61B / RFU, FUBP3 / Fold change vs veh, FUBP3 / RFU, TP53 / Fold change vs veh, TP53 / RFU, TNKS2 / Fold change vs veh, TNKS2 / RFU, ZFP14 / Fold change vs veh, ZFP14 / RFU, ACTR2 / Fold change vs veh, ACTR2 / RFU, PPP3R1 / Fold change vs veh, PPP3R1 / RFU, PIK3R1 / Fold change vs veh, PIK3R1 / RFU, HNRNPA1 / Fold change vs veh, HNRNPA1 / RFU, RNF170 / Fold change vs veh, RNF170 / RFU, ZNF28 / Fold change vs veh, ZNF28 / RFU, RNGTT / Fold change vs veh, RNGTT / RFU, OGT / Fold change vs veh, OGT / RFU, BRD1 / Fold change vs veh, BRD1 / RFU, MARS / Fold change vs veh, MARS / RFU, ZNF655 / Fold change vs veh, ZNF655 / RFU, FAHD1 / Fold change vs veh, FAHD1 / RFU, BDP1 / Fold change vs veh, BDP1 / RFU, LRRCC1 / Fold change vs veh, LRRCC1 / RFU, ARID1A / Fold change vs veh, ARID1A / RFU, ZNF146 / Fold change vs veh, ZNF146 / RFU, ZNF330 / Fold change vs veh, ZNF330 / RFU, GPN3 / Fold change vs veh, GPN3 / RFU, C9orf123 / Fold change vs veh, C9orf123 / RFU, N4BP2L2 / Fold change vs veh, N4BP2L2 / RFU, ARFIP1 / Fold change vs veh, ARFIP1 / RFU, FAM179B / Fold change vs veh, FAM179B / RFU, BCL10 / Fold change vs veh, BCL10 / RFU, UHRF1BP1L / Fold change vs veh, UHRF1BP1L / RFU, BET1 / Fold change vs veh, BET1 / RFU, CNOT2 / Fold change vs veh, CNOT2 / RFU, ZNF268 / Fold change vs veh, ZNF268 / Fold change vs veh, ZNF507 / RFU, DGCR2 / Fold change vs veh, DGCR2 / RFU, WDSUB1 / Fold change vs veh, WDSUB1 / Fold change vs veh, HSP90B1 /// MIR3652 / RFU, ADSS / Fold change vs veh, ADSS / RFU, GK / Fold change vs veh, GK / RFU, ZNF148 / Fold change vs veh, ZNF148 / RFU, TAF9 / Fold change vs veh, TAF9 / RFU, SLC1A5 / Fold change vs veh, SLC1A5 / RFU, SLMO2 / Fold change vs veh, SLMO2 / RFU, ABCC4 / Fold change vs veh, ABCC4 / RFU, LOC101060439 /// RAP1B / Fold change vs veh, LOC101060439 /// RAP1B / RFU, RFX7 / Fold change vs veh, RFX7 / RFU, GTPBP10 / Fold change vs veh, GTPBP10 / RFU, CNEP1R1 / Fold change vs veh, CNEP1R1 / RFU, BIVM-ERCC5 /// ERCC5 / Fold change vs veh, BIVM-ERCC5 /// ERCC5 / RFU, ILF3 / Fold change vs veh, ILF3 / RFU 11762660_at / Fold change /veh 11762660_at / RFU VCAN (11757783_s_at) / Fold change /veh VCAN (11757783_s_at) / RFU DDX43 (11728927_at) / Fold change /veh DDX43 (11728927_at) / RFU KRT8 (11758188_x_at) / Fold change /veh KRT8 (11758188_x_at) / RFU NKD1 (11759106_at) / Fold change /veh NKD1 (11759106_at) / RFU SRD5A1 (11742802_a_at) / Fold change /veh SRD5A1 (11742802_a_at) / RFU TPSAB1 /// TPSB2 (11721975_s_at) / Fold change /veh TPSAB1 /// TPSB2 (11721975_s_at) / RFU GSTM3 (11746129_a_at) / Fold change /veh GSTM3 (11746129_a_at) / RFU IL23R (11737362_x_at) / Fold change /veh IL23R (11737362_x_at) / RFU TMEM51 (11727254_a_at) / Fold change /veh TMEM51 (11727254_a_at) / RFU PIWIL2 (11732686_x_at) / Fold change /veh PIWIL2 (11732686_x_at) / RFU ORM1 (11744905_x_at) / Fold change /veh ORM1 (11744905_x_at) / RFU CCDC152 (11743942_at) / Fold change /veh CCDC152 (11743942_at) / RFU ECM1 (11717891_a_at) / Fold change /veh ECM1 (11717891_a_at) / RFU IL23R (11748794_a_at) / Fold change /veh IL23R (11748794_a_at) / RFU TNFAIP8L3 (11732012_x_at) / Fold change /veh TNFAIP8L3 (11732012_x_at) / RFU MBOAT4 (11741988_at) / Fold change /veh MBOAT4 (11741988_at) / RFU 11764193_at / Fold change /veh 11764193_at / RFU TMEM53 (11763286_at) / Fold change /veh TMEM53 (11763286_at) / RFU MAGEB2 (11727129_at) / Fold change /veh MAGEB2 (11727129_at) / RFU TMEM200A (11744735_a_at) / Fold change /veh TMEM200A (11744735_a_at) / RFU CCDC152 (11751479_a_at) / Fold change /veh CCDC152 (11751479_a_at) / RFU FAM211A (11726209_a_at) / Fold change /veh FAM211A (11726209_a_at) / RFU RGS16 (11746705_a_at) / Fold change /veh RGS16 (11746705_a_at) / RFU VCAN (11755009_s_at) / Fold change /veh VCAN (11755009_s_at) / RFU RHOB (11743442_s_at) / Fold change /veh RHOB (11743442_s_at) / RFU RGS16 (11720943_a_at) / Fold change /veh RGS16 (11720943_a_at) / RFU RGS16 (11720944_at) / Fold change /veh RGS16 (11720944_at) / RFU, VPS4B / Fold change vs veh, VPS4B / RFU, CREB1 / Fold change vs veh, CREB1 / RFU, DNAJC13 / Fold change vs veh, DNAJC13 / RFU, GNAQ / Fold change vs veh, GNAQ / RFU, CDK5R1 / Fold change vs veh, CDK5R1 / RFU, ZRANB3 / Fold change vs veh, ZRANB3 / RFU, CUL4A / Fold change vs veh, CUL4A / RFU, CCNY / Fold change vs veh, CCNY / RFU, UFL1 / Fold change vs veh, UFL1 / RFU, COG3 / Fold change vs veh, COG3 / RFU, DIAPH2 / Fold change vs veh, DIAPH2 / RFU, SKA2 / Fold change vs veh, SKA2 / RFU, AFF3 / Fold change vs veh, AFF3 / RFU, LMF1 / Fold change vs veh, LMF1 / RFU, IPO11 / Fold change vs veh, IPO11 / RFU, DFFB / Fold change vs veh, DFFB / RFU, FOXP1 / Fold change vs veh, FOXP1 / RFU, CARD8 / Fold change vs veh, CARD8 / RFU, STRN3 / Fold change vs veh, STRN3 / RFU, ADK / Fold change vs veh, ADK / RFU, RASSF2 / Fold change vs veh, RASSF2 / RFU, WIPF1 / Fold change vs veh, WIPF1 / RFU, LARP1B / Fold change vs veh, LARP1B / RFU, RASA1 / Fold change vs veh, RASA1 / RFU, RB1 / Fold change vs veh, RB1 / RFU, PPFIA1 / Fold change vs veh, PPFIA1 / RFU, MAT2A / Fold change vs veh, MAT2A / RFU, CCT5 / Fold change vs veh, CCT5 / RFU, WDR92 / Fold change vs veh, WDR92 / RFU, CUX1 / Fold change vs veh, CUX1 / RFU, TTC7A / Fold change vs veh, TTC7A / RFU, TMEM135 / Fold change vs veh, TMEM135 / RFU, DEPTOR / Fold change vs veh, DEPTOR / RFU, CPM / Fold change vs veh, CPM / RFU, DNAJB6 / Fold change vs veh, DNAJB6 / RFU, CACNA2D3 / Fold change vs veh, CACNA2D3 / RFU, DTX4 / Fold change vs veh, DTX4 / RFU, TFCP2 / Fold change vs veh, TFCP2 / RFU, GMCL1 /// GMCL1P1 / Fold change vs veh, GMCL1 /// GMCL1P1 / RFU, AEBP2 / Fold change vs veh, AEBP2 / RFU, SNHG1 /// SNORD22 /// SNORD25 /// SNORD26 /// SNORD27 /// SNORD28 /// SNORD29 /// SNORD31 / Fold change vs veh, SNHG1 /// SNORD22 /// SNORD25 /// SNORD26 /// SNORD27 /// SNORD28 /// SNORD29 /// SNORD31 / Fold change (Aza/veh), C12orf56 (ProbeSet 11735607_a_at) / Fold change (ACY-1035/veh), C12orf56 (ProbeSet 11735607_a_at) / Fold change (Aza/veh), FGFR1OP (ProbeSet 11751329_s_at) / Fold change (ACY-1035/veh), FGFR1OP (ProbeSet 11751329_s_at) / Fold change (Aza/veh), VPS36 (ProbeSet 11739960_a_at) / Fold change (ACY-1035/veh), VPS36 (ProbeSet 11739960_a_at) / RFU SYPL1 (11715823_x_at) / Fold change /veh SYPL1 (11715823_x_at) / RFU IGFBP7 (11715501_s_at) / Fold change /veh IGFBP7 (11715501_s_at) / RFU REEP3 (11722064_at) / Fold change /veh REEP3 (11722064_at) / RFU IGLL1 (11728026_x_at) / Fold change /veh IGLL1 (11728026_x_at): dose or concentration left out as unconfirmed
Conditions: MV-4-11 cells, 48 hours

Structure (SMILES): Nc1ncn([C@@H]2O[C@H](CO)[C@@H](O)[C@H]2O)c(=O)n1 [azacitidine]
- Fold change /veh JSRP1 (11732532_at): 1.00
